Measured values taken from patent publication US8470844B2, “Imidazoacridinone derivative compounds and methods for their use” (Technion Research & Development Foundation Limited, priority 2008, dated 2013).

Columns and labels:
[1] = target: T1, FLT3 receptor tyrosine kinase (Homo sapiens, UniProt P36888); conditions: preclinical, from cited literature; cited from earlier work
T1 sequence (P36888 27-993): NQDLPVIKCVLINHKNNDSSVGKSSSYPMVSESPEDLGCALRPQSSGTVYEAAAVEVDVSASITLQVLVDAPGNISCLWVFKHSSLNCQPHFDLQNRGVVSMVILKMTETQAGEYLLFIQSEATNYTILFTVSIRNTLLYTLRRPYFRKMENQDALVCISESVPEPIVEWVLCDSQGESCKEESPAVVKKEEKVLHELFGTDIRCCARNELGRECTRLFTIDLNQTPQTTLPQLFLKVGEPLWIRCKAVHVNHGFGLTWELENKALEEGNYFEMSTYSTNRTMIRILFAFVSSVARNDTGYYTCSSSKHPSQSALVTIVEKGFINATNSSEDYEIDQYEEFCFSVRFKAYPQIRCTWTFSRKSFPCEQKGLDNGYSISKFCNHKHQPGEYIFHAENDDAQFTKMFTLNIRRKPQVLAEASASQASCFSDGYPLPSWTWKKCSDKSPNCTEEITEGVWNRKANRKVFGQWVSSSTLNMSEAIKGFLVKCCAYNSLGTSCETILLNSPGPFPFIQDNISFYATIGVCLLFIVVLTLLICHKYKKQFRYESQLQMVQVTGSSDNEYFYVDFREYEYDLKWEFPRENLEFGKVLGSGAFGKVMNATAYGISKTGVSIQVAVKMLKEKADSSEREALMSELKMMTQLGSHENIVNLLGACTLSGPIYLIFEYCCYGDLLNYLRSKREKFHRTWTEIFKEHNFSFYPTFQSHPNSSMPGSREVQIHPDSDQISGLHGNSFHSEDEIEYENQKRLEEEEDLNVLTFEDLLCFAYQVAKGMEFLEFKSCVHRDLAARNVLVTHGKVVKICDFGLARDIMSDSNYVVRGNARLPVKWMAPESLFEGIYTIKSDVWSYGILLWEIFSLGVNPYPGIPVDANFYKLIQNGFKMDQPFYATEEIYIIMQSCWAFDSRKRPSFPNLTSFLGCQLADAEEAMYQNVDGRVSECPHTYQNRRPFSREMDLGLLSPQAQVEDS

A549 cells = experiment: MTT cytotoxicity assay, parental A549 cells; assay type: cell-based, Human; conditions: 96 hours exposure, mean of at least three experiments
Experimental: Tissue culture: Human non-small cell lung cancer A549 cells and T-cell leukemia CCRF-CEM cells were grown under monolayer conditions or up to a maximal density of 10^6 cells/ml (for CCRF-CEM cells) in RPMI-1640 medium (GIBCO) supplemented with 10% fetal calf serum, 2 mM glutamine, 100 μg/ml penicillin and 100 μg/ml streptomycin (Biological Industries, Beth-Haemek, Israel) in a humid atmosphere of 5% CO2. Drug resistant A549/K1.5 cells with ABCG2 overexpression were maintained under a continuous drug selection with 1.5 μM C-1305. Bram, E. E., et al., (2007) Biochem Pharmacol 74(1), 41-53.
Cytotoxicity and growth inhibition assays: The cytotoxic activity of the various IA antitumor agents was determined using the MTT assay. Poindessous, V., et al., (2003) Clin Cancer Res 9(7), 2817-2825.
Exponentially growing cells were seeded at 5×10^3 cells/well in 24-well plates (2 ml medium/well). Following an overnight incubation, cells were exposed to different drug concentrations for 96 hours. Cellular viability was determined by adding the tetrazolium salt MTT for 4 h at 37° C., followed by solubilization of the intracellular precipitated formazan in 1 ml DMSO and absorbance was determined by a microplate reader (ASYS Hitech GmbH, Austria). Drug concentrations required to inhibit cell growth by 50% (IC50) compared with untreated controls were determined from the curves of survival versus drug concentrations using the SlideWrite software (Advanced Graphics Software, Inc., Encinitas, Calif.). Resistance folds (RF) were calculated by dividing the IC50 value of the resistant cells by that of the parental cell line. Values presented are means of at least three independent experiments, each performed in duplicates.

ABCG2 (A549/K1.5 cells) = target: T2, ABCG2 (A549/K1.5 cells) (Homo sapiens, UniProt Q9UNQ0); experiment: Fluorescence microscopy of nuclear accumulation of IAs in A549/K1.5 cells; assay type: cell-based; conditions: 10 μM IA, 1 hr
T2 construct: Drug resistant A549/K1.5 cells with ABCG2 overexpression were maintained under a continuous drug selection with 1.5 μM C-1305; endogenous in cells; host or cells: A549/K1.5 (C-1305-selected subline of human non-small cell lung cancer A549)
T2 sequence (Q9UNQ0 1-655): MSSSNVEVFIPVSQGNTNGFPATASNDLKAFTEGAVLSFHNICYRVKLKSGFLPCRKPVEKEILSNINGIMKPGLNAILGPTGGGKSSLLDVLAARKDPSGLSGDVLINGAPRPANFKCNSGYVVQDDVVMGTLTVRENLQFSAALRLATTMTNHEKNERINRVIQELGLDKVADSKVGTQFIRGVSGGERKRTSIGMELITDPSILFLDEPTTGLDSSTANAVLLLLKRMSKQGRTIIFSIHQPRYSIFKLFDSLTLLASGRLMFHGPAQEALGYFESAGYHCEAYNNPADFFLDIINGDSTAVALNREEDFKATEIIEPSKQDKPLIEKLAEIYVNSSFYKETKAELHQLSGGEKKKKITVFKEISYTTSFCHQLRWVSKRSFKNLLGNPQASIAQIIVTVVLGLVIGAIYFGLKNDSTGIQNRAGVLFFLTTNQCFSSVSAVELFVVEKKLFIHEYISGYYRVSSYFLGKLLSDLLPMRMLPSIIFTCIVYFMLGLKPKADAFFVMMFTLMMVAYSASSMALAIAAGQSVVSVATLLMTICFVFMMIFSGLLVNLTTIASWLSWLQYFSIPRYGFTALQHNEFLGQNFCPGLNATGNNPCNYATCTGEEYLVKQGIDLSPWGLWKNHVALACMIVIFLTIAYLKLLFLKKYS
Experimental: In immunofluorescence microscopy of plasma membrane targeting of ABCG2 and nuclear accumulation of IAs, cells (1×10^4/well) were seeded in 24-well plates (1 ml medium/well) and incubated for 2 days, following which some wells were supplemented with 10 μM IA-containing medium±5 μM FTC and incubated for 1 h at 37° C. Cells were then washed twice with ice-cold PBS containing 0.1% BSA and blocked for 10 min at 4° C. with PBS containing 5% BSA. Cells were then washed once with ice-cold PBS containing 0.1% BSA and incubated for 30 min at 4° C. with a Phycoerythrin-conjugated, affinity-purified 5D3 mouse anti-human ABCG2 monoclonal antibody (1:100; eBioscience). Unspecific fluorescence was determined using cells that were incubated only with a secondary Phycoerythrin (PE)-conjugated goat anti-mouse IgG (1:200; Jackson Immunoresearch Labs, West Grove, Pa.). Cells were then washed twice and subjected to fluorescence microscopy using a DMIRE2 fluorescence microscope equipped with a DC300FX camera (Leica Microsystems, Wetzlar, Germany).
In order to exclude the possibility that differential subcellular accumulation of IA derivatives is the basis of the observed difference in cytotoxicity and cellular fluorescence, A549/K1.5 cells were incubated with 10 μM of selected IA derivatives from both group A and B in the presence or absence of FTC and subjected to fluorescence microscopy.

Q: Which results are given for CCN(CC)CCNc1ccc2ncn3c4ccc(O)cc4c(=O)c1c23 [C-1311]?
A: FLT3 receptor tyrosine kinase inhibition (in words) [1]: potent and selective FLT3 receptor tyrosine kinase inhibitor; IC50 (A549 cells): 0.27 ± 0.012 µM; intracellular accumulation (fluorescence microscopy) (ABCG2 (A549/K1.5 cells); absence of FTC): no apparent intracellular accumulation; nuclear accumulation (fluorescence microscopy) (ABCG2 (A549/K1.5 cells); presence of 5 μM FTC): marked restoration of nuclear accumulation
